Assay results from patent US9549943B2, “A3 adenosine receptor ligands for use in treatment of a sexual dysfunction” (CAN-FITE BIOPHARMA LTD., priority 2012, dated 2017).

Experiments:
[1] = test system: Patients with Moderate-to-Severe Dry Eye Disease; test: Phase 3 clinical study of oral CF101 in dry eye disease; patient-reported sexual effects; type: in vivo, human
Excerpt: The clinical study (the “Study”) was a Phase 3, Randomized, Double-Masked, Placebo-Controlled, Dose-Finding, Parallel-Group Study of the Safety and Efficacy of Daily CF101 Administered Orally in Patients with Moderate-to-Severe Dry Eye Disease, keratoconjunctivitis sicca (KCS). CF101 is an experimental pharmaceutical composition where the active ingredient is IB-MECA. The study had two primary objectives: (i) determine the efficacy of oral administered CF101, as compared to placebo, when administered at doses of either 0.1 mg or 1.0 mg (namely 0.1 and 1 mg of IB-MECA per each administration, respectively) twice daily for 24 weeks in patients with KCS, and (ii) determine the safety of this drug in the patients. Patients were randomized to receive pills of either CF101 0.1 mg, CF101 1.0 mg, or matching placebo, given orally twice daily (BID) for 24 weeks. A Screening Period of up to 4 weeks that includes a 2-week run-in period that preceded the 24-week treatment period, followed by a 2-week follow-up period. The patients that were enrolled in the study had to meet a number of inclusion criteria (namely criteria that had to be matched for a human subject to participate in the study), including (i) being 18 years of age and over, (ii) being diagnosed with moderate-to-severe Aqueous-Deficient Dry Eye (including Sjögren's Syndrome dry eye), as defined by acceptable clinical criteria, and (iii) a variety of other criteria. Patients that met certain exclusion criteria that related to certain ophthalmic conditions and use of other medications. Clinical outcome in improving KCS symptoms was determined through a variety of relevant ophthalmic parameters. In addition, adverse events were recorded for each patient throughout the study and all effects reported by patients were reported. By the time of filing this patent application the study was still ongoing. […] It should be noted that at this time of reporting of these events the study was still masked, namely it is not known whether the patients received CF101 or placebo and if CF101 than the dose of the drug.

[2] = test system: patients with active rheumatoid arthritis (RA); test: Phase 2 study of oral CF101 added to weekly Methotrexate in rheumatoid arthritis; sexual effects; type: in vivo, human; conditions: CF101 0.1 mg or 1 mg tablets orally every 12 h for 12 weeks, with weekly MTX
Protocol: Phase 2 study in patients with active rheumatoid arthritis (RA) (randomized, double-blind, placebo-controlled), treated in parallel with CF101 administrated orally when added to weekly Methotrexate (MTX). The patients were given CF101 either 0.1 mg or 1 mg tablets or placebo tablets, taken orally every 12 h for 12 weeks. Washout of other disease-modifying antirheumatic drugs (DMARDs), including biological agents was occurring prior to dosing.

[3] = test system: patients with moderated to severe Plaque Psoriasis (PS); test: Phase 2 study of oral CF101 in Plaque Psoriasis; sexual effects; type: in vivo, human; conditions: CF101 1 mg, 2 mg and 4 mg orally twice daily for 12 weeks
Protocol: In a further Phase 2 study, randomized, double-blind, dose-ranging, placebo-controlled study was conducted to determine safety and activity of CF101 administered orally in patients with moderated to severe Plaque Psoriasis (PS). CF101 was administered at 1 mg. 2 mg and 4 mg twice daily for 12 weeks.

Male C57BL/6j mice = test: Concanavalin A mouse model treated with allosteric enhancer; erection observed; type: in vivo; conditions: 100 μg/kg orally 8 h after Con.A and 2 h before termination, no signs in control-untreated group
Protocol: Male C57BL/6j mice, 8 weeks of age, were injected intravenously (tail vein) with concanavalin A (Con.A) (20 mg/kg). twenty four hours after Con.A injection, levels of alanine aminotransferase (ALT) and aspirate aminotransferase (AST) were measured in the serum.
The allosteric compound, Luf6000 (also known as N-(3,4-dichloro-phenyl)-2-cyclohexyl-1H-imidazo[4,5-c]quinolin-4-amine), was orally administered at a dose of 100 μg/kg 8 h after Con.A administration and 2 h before termination.

SMILES	erection or increase in sexual desire in patients ([1]; oral CF101, patients with moderate to severe dry eye disease (summary statement))	period during which erection occurred every day after each intake ([1]; patient)	sexual potency reported by patient ([1]; patient (code 104507), oral, twice daily, 0.1 mg or 1 mg, study still masked)	time after intake to unprovoked erection ([1]; patient, after each CF101 intake)	erection reported by patient after intake ([1]; patient, oral, twice daily, 0.1 mg or 1 mg, study still masked)	erection or increase in sexual desire in patients [2]	erection or increase in sexual desire in patients [3]	erection in treated mice (Male C57BL/6j mice)	erection in treated mice (Male C57BL/6j mice; listed as LUF6000)
CNC(=O)[C@H]1O[C@@H](n2cnc3c(NCc4cccc(I)c4)ncnc32)[C@H](O)[C@@H]1O [CF101, N^6-(3-iodobenzyl)-adenosine-5′-N-methyluronamide]	some of the patients experienced erection or increase in sexual desire	about 10 days	increase of sexual potency	around 30 minutes	unprovoked erection	some of the patients experienced erection or increase in sexual desire	some of the patients experienced erection or increase in sexual desire	–	–
Clc1ccc(Nc2nc3ccccc3c3[nH]c(C4CCCCC4)nc23)cc1Cl [Luf6000, N-(3,4-dichloro-phenyl)-2-cyclohexyl-1H-imidazo[4,5-c]quinolin-4-amine]	–	–	–	–	–	–	–	erection was noticed	exhibited erection
